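Exposure lasted 48 hours, with cells grown in 96-well plates and compounds tested at five concentrations. The concentration for 50% growth inhibition is given as GI50.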 Active and inactive are the calls of the source. No stated cut-off is given here; in the data, active = GI50 up to about 1.1 µM and inactive = higher.
Tests used:
Experiment in all cases: growth of human tumour cells (NCI), 48 h
OVCAR-3 = system: OVCAR-3
MOLT-4 = system: MOLT-4
NCI-H23 = system: NCI-H23
XF498 = system: XF498
M14 = system: M14
NCI-H522 = system: NCI-H522
A498 = system: A498
KM-20L2 = system: KM-20L2
UACC-257 = system: UACC-257
HT-29 = system: HT-29
IGROV-1 = system: IGROV-1
SN12C = system: SN12C
HCC 2998 = system: HCC 2998
TK-10 = system: TK-10
OVCAR-5 = system: OVCAR-5
SF-268 = system: SF-268
NCI-H460 = system: NCI-H460
SK-MEL-2 = system: SK-MEL-2
SF-295 = system: SF-295
HOP-18 = system: HOP-18

Row | Structure (SMILES) | GI50 (OVCAR-3) | GI50 (MOLT-4) | GI50 (NCI-H23) | GI50 (XF498) | GI50 (M14) | GI50 (NCI-H522) | GI50 (A498) | GI50 (KM-20L2) | GI50 (UACC-257) | GI50 (HT-29) | GI50 (IGROV-1) | GI50 (SN12C) | GI50 (HCC 2998) | GI50 (TK-10) | GI50 (OVCAR-5) | GI50 (SF-268) | GI50 (NCI-H460) | GI50 (SK-MEL-2) | GI50 (SF-295) | GI50 (HOP-18)
1 | CN(CCO)/N=N/c1[nH]cnc1C(N)=O | > 100 µM (inactive) | > 100 µM (inactive) | > 100 µM (inactive) | 82.2 µM (inactive) | 37.8 µM (inactive) | > 100 µM (inactive) | > 100 µM (inactive) | > 100 µM (inactive) | 99.8 µM (inactive) | > 100 µM (inactive) | > 100 µM (inactive) | > 100 µM (inactive) | > 100 µM (inactive) | 49.2 µM (inactive) | > 100 µM (inactive) | 84.1 µM (inactive) | > 100 µM (inactive) | 22.5 µM (inactive) | 77.8 µM (inactive) | 
2 | C=C(C)C1Cc2c(c3ccccc3n(C)c2=O)O1 (stereo not given) | > 100 µM (inactive) | > 100 µM (inactive) | > 100 µM (inactive) |  | > 100 µM (inactive) | > 100 µM (inactive) | > 100 µM (inactive) | > 100 µM (inactive) |  | > 100 µM (inactive) | > 100 µM (inactive) | > 100 µM (inactive) |  | > 100 µM (inactive) |  | > 100 µM (inactive) | > 100 µM (inactive) | > 100 µM (inactive) | > 100 µM (inactive) | > 100 µM (inactive)
3 | CC(=O)Nc1ccc(Sc2nnc(NC(C)=O)s2)cc1 |  | > 100 µM (inactive) |  |  | > 100 µM (inactive) | > 100 µM (inactive) |  |  | > 100 µM (inactive) |  | > 100 µM (inactive) | > 100 µM (inactive) | > 100 µM (inactive) | > 100 µM (inactive) | > 100 µM (inactive) | > 100 µM (inactive) | > 100 µM (inactive) |  | > 100 µM (inactive) | 
4 | COc1cc(C2c3cc4c(cc3[C@@H](Nc3ccccc3)C3COC(=O)[C@H]23)OCO4)cc(OC)c1O (stereo not given in full) | 2.48 µM (inactive) | < 0.01 µM (active) | 0.238 µM (active) | 1.03 µM (active) |  | 1.24 µM (inactive) | 0.221 µM (active) | 2.1 µM (inactive) | 0.615 µM (active) | 1.23 µM (inactive) | 2.21 µM (inactive) | 0.485 µM (active) | 1.23 µM (inactive) |  | 1.86 µM (inactive) | 1.04 µM (active) | < 0.01 µM (active) | 2.79 µM (inactive) | 0.171 µM (active) | 0.853 µM (active)
5 | N#CCCN(CCC#N)c1ccc(/C=C(/NC(=O)Nc2ccccc2Cl)NC(=O)c2cc([N+](=O)[O-])ccc2Cl)cc1 | > 100 µM (inactive) | 42 µM (inactive) |  | > 100 µM (inactive) | > 100 µM (inactive) | 44.1 µM (inactive) |  | > 100 µM (inactive) |  |  | > 100 µM (inactive) | > 100 µM (inactive) | > 100 µM (inactive) | > 100 µM (inactive) | > 100 µM (inactive) | > 100 µM (inactive) |  | > 100 µM (inactive) | > 100 µM (inactive) | > 100 µM (inactive)
